In patent US10865191B2, “Heterocyclic compounds useful as modulators of TNF alpha” (BRISTOL-MYERS SQUIBB COMPANY, priority 2015, dated 2020):

Each molecule was assayed against TNFα (Homo sapiens, UniProt P01375) (assay: TNF induced HEK-Blue assay (NF-kB-driven secreted alkaline phosphatase reporter)). Conditions: TNF induced HEK-Blue assay IC50 value, TNFα 0.5 ng/mL, HEK-Blue-CD40L cells, 18 h.
Sequence of TNFα (P01375 77-233 limits assumed): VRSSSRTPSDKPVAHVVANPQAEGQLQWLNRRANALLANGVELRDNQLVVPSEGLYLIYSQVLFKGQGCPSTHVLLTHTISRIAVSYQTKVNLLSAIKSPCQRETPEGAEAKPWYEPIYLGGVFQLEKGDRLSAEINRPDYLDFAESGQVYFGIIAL
Assay type: cell-based
Outline: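 HEK-Blue-CD40L cells (NF-kB-driven SEAP reporter), 20,000/well, added after 30 min pre-incubation of compound (0.004–25 μM final) with TNFα 0.5 ng/mL final at 37 °C; 18 h incubation. SEAP read with QUANTI-Blue at 620 nm; IC50 from 4-parameter logistic fit, normalized to unstimulated and stimulated DMSO controls.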
Molecule `Cc1nc2cc(F)c(-c3cnc(C(C)(C)O)nc3)nc2c(N[C@H](C)c2cc(C#N)ccc2F)c1Cl` [Example 586, (R)-3-(1-((3-chloro-7-fluoro-6-(2-(2-hydroxypropan-2-yl)pyrimidin-5-yl)-2-methyl-1,5-naphthyridin-4-yl)amino)ethyl)-4-fluorobenzonitrile] has an IC50 of under 1000 nM.

Same assay, conditions: TNFα 0.5 ng/mL, HEK-Blue-CD40L cells, 18 h; read-out: TNF induced HEK-Blue assay IC50 value
`C[C@H](Nc1c(Cl)cnc2ccc(-c3cnc(C(C)(C)O)nc3)cc12)[C@H]1CCCN(S(=O)(=O)c2cnn(C)c2)C1` [Example 564, 2-(5-(3-chloro-4-(((S)-1-((S)-1-((1-methyl-1H-pyrazol-4-yl)sulfonyl)piperidin-3-yl)ethyl)amino)quinolin-6-yl)pyrimidin-2-yl)propan-2-ol] gave an IC50 of 1000 to 10000 nM. With `C[C@H](Nc1c(Cl)cnc2ccc(-c3cnc(C(C)(C)O)nc3)cc12)[C@H]1CCCN(C(=O)c2cn[nH]c2)C1` [Example 565, ((S)-3-((S)-1-((3-chloro-6-(2-(2-hydroxypropan-2-yl)pyrimidin-5-yl)quinolin-4-yl)amino)ethyl)piperidin-1-yl)(1H-pyrazol-4-yl)methanone] the IC50 was 10000 to 25000 nM. `C[C@H](Nc1c(Cl)cnc2ccc(-c3cnc(C(C)(C)O)nc3)cc12)[C@H]1CCCN(C(=O)c2cccnc2)C1` [Example 566, ((S)-3-((S)-1-((3-chloro-6-(2-(2-hydroxypropan-2-yl)pyrimidin-5-yl)quinolin-4-yl)amino)ethyl)piperidin-1-yl)(pyridin-3-yl)methanone] gave an IC50 of 1000 to 10000 nM. `C[C@H](Nc1c(Cl)cnc2ccc(-c3cnc(C(C)(C)O)nc3)cc12)[C@H]1CCCN(c2cncnc2)C1` [Example 567, 2-(5-(3-chloro-4-(((S)-1-((S)-1-(pyrimidin-5-yl)piperidin-3-yl)ethyl)amino)quinolin-6-yl)pyrimidin-2-yl)propan-2-ol] gave an IC50 of 1000 to 10000 nM. Molecule `C[C@@H](Nc1c(Cl)cnc2ccc(-c3ccc(C4(NCCO)CCC4)cc3)cc12)c1ccccc1F` [Example 568, (R)-2-((1-(4-(3-chloro-4-((1-(2-fluorophenyl)ethyl)amino)quinolin-6-yl)phenyl)cyclobutyl)amino)ethan-1-ol] has an IC50 of under 1000 nM. `C[C@@H](Nc1c(Cl)cnc2ccc(-c3ccc(CNC(N)=O)cc3)cc12)c1ccccc1F` [Example 569, (R)-1-(4-(3-chloro-4-((1-(2-fluorophenyl)ethyl)amino)quinolin-6-yl)benzyl)urea] showed an IC50 of under 1000 nM. Work on `Cc1nc2cc(F)c(-c3cnc(C(C)(C)O)nc3)nc2c(N[C@H](C)c2cc(C(O)CO)ccc2F)c1Cl` (stereo partly drawn) [Example 570, 1-(3-((R)-1-((3-chloro-7-fluoro-6-(2-(2-hydroxypropan-2-yl)pyrimidin-5-yl)-2-methyl-1,5-naphthyridin-4-yl)amino)ethyl)-4-fluorophenyl)ethane-1,2-diol] yielded an IC50 of 1000 to 10000 nM. Molecule `C=Cc1cccc([C@@H](C)Nc2c(Cl)c(C)nc3cc(F)c(-c4cnc(C(C)(C)O)nc4)nc23)c1` [Example 571, (R)-2-(5-(7-chloro-3-fluoro-6-methyl-8-((1-(3-vinylphenyl)ethyl)amino)-1,5-naphthyridin-2-yl)pyrimidin-2-yl)propan-2-ol] has an IC50 of under 1000 nM. Molecule `C=Cc1ccc(F)c([C@@H](C)Nc2c(Cl)c(C)nc3cc(F)c(-c4cnc(C(C)(C)O)nc4)nc23)c1` [Example 572, (R)-2-(5-(7-chloro-3-fluoro-8-((1-(2-fluoro-5-vinylphenyl)ethyl)amino)-6-methyl-1,5-naphthyridin-2-yl)pyrimidin-2-yl)propan-2-ol] has an IC50 of 1000 to 10000 nM. Work on `C[C@@H](Nc1c(Cl)cnc2cc(F)c(-c3cnc(C(C)(C)O)nc3)nc12)c1cccc(C(O)CO)c1` (stereo partly drawn) [Example 573, 1-(3-((R)-1-((3-chloro-7-fluoro-6-(2-(2-hydroxypropan-2-yl)pyrimidin-5-yl)-1,5-naphthyridin-4-yl)amino)ethyl)phenyl)ethane-1,2-diol] yielded an IC50 of under 1000 nM. `C=Cc1cccc([C@@H](C)Nc2c(Cl)cnc3cc(F)c(-c4cnc(C(C)(C)O)nc4)nc23)c1` [Example 574, (R)-2-(5-(7-chloro-3-fluoro-8-((1-(3-vinylphenyl)ethyl)amino)-1,5-naphthyridin-2-yl)pyrimidin-2-yl)propan-2-ol] was tested, and the IC50 was under 1000 nM. With `Cc1nc2cc(F)c(-c3cnc(C(C)(C)O)nc3)nc2c(N[C@H](C)c2cccc(C(O)CO)c2)c1Cl` (stereo partly drawn) [Example 575, 1-(3-((R)-1-((3-chloro-7-fluoro-6-(2-(2-hydroxypropan-2-yl)pyrimidin-5-yl)-2-methyl-1,5-naphthyridin-4-yl)amino)ethyl)phenyl)ethane-1,2-diol] the IC50 was under 1000 nM. `C[C@@H](Nc1c(Cl)cnc2cc(F)c(-c3cnc(C(C)(C)O)nc3)nc12)c1cccc(CO)c1` [Example 576, (R)-2-(5-(7-chloro-3-fluoro-8-((1-(3-(hydroxymethyl)phenyl)ethyl)amino)-1,5-naphthyridin-2-yl)pyrimidin-2-yl)propan-2-ol] was tested, and the IC50 was under 1000 nM. With `Cc1nc2cc(F)c(-c3cnc(C(C)(C)O)nc3)nc2c(N[C@H](C)c2cc(CO)ccc2F)c1Cl` [Example 577, (R)-2-(5-(7-chloro-3-fluoro-8-((1-(2-fluoro-5-(hydroxymethyl)phenyl)ethyl)amino)-6-methyl-1,5-naphthyridin-2-yl)pyrimidin-2-yl)propan-2-ol] the IC50 was under 1000 nM. Work on `Cc1nc2cc(F)c(-c3cnc(C(C)(C)O)nc3)nc2c(N[C@H](C)c2cccc(CO)c2)c1Cl` [Example 578, (R)-2-(5-(7-chloro-3-fluoro-8-((1-(3-(hydroxymethyl)phenyl)ethyl)amino)-6-methyl-1,5-naphthyridin-2-yl)pyrimidin-2-yl) propan-2-ol] yielded an IC50 of under 1000 nM. Molecule `C[C@@H](Nc1c(Cl)cnc2cc(F)c(-c3cnc(C(C)(C)O)nc3)nc12)c1cc(C(=O)O)ccc1F` [Example 579, (R)-3-(1-((3-chloro-7-fluoro-6-(2-(2-hydroxypropan-2-yl)pyrimidin-5-yl)-1,5-naphthyridin-4-yl)amino)ethyl)-4-fluorobenzoic acid] has an IC50 of 1000 to 10000 nM. `Cc1nc2cc(F)c(-c3cnc(C(C)(C)O)nc3)nc2c(N[C@H](C)c2cccc(C(N)=O)c2)c1Cl` [Example 580, (R)-3-(1-((3-chloro-7-fluoro-6-(2-(2-hydroxypropan-2-yl)pyrimidin-5-yl)-2-methyl-1,5-naphthyridin-4-yl)amino)ethyl)benzamide] gave an IC50 of under 1000 nM. `C[C@@H](Nc1c(Cl)cnc2cc(F)c(-c3cnc(C(C)(C)O)nc3)nc12)c1cccc(C(N)=O)c1` [Example 581, (R)-3-(1-((3-chloro-7-fluoro-6-(2-(2-hydroxypropan-2-yl)pyrimidin-5-yl)-1,5-naphthyridin-4-yl)amino)ethyl)benzamide] showed an IC50 of 10000 to 25000 nM. Molecule `Cc1nc2cc(F)c(-c3cnc(C(C)(C)O)nc3)nc2c(N[C@H](C)c2cc(C(=O)O)ccc2F)c1Cl` [Example 582, (R)-3-(1-((3-chloro-7-fluoro-6-(2-(2-hydroxypropan-2-yl)pyrimidin-5-yl)-2-methyl-1,5-naphthyridin-4-yl)amino)ethyl)-4-fluorobenzoic acid] has an IC50 of 10000 to 25000 nM. Molecule `C[C@@H](Nc1c(Cl)cnc2cc(F)c(-c3cnc(C(C)(C)O)nc3)nc12)c1cc(C(N)=O)ccc1F` [Example 583, (R)-3-(1-((3-chloro-7-fluoro-6-(2-(2-hydroxypropan-2-yl)pyrimidin-5-yl)-1,5-naphthyridin-4-yl)amino)ethyl)-4-fluorobenzamide] has an IC50 of under 1000 nM. With `Cc1nc2cc(F)c(-c3cnc(C(C)(C)O)nc3)nc2c(N[C@H](C)c2cc(C(N)=O)ccc2F)c1Cl` [Example 584, (R)-3-(1-((3-chloro-7-fluoro-6-(2-(2-hydroxypropan-2-yl)pyrimidin-5-yl)-2-methyl-1,5-naphthyridin-4-yl)amino)ethyl)-4-fluorobenzamide] the IC50 was under 1000 nM. `C[C@@H](Nc1c(Cl)cnc2ccc(-c3cnc(NCC(N)=O)nc3)cc12)c1ccccc1F` [Example 585, (R)-2-((5-(3-chloro-4-((1-(2-fluorophenyl)ethyl)amino)quinolin-6-yl)pyrimidin-2-yl)amino)acetamide] showed an IC50 of 10000 to 25000 nM. With `C[C@@H](Nc1c(Cl)cnc2ccc(-c3cnc(NC4(C(N)=O)CC4)nc3)cc12)c1ccccc1F` [Example 587, (R)-1-((5-(3-chloro-4-((1-(2-fluorophenyl)ethyl)amino)quinolin-6-yl)pyrimidin-2-yl)amino)cyclopropane-1-carboxamide] the IC50 was under 1000 nM. Molecule `C[C@@H](Nc1c(Cl)cnc2cc(F)c(-c3cnc(C(C)(C)O)nc3)nc12)c1cccc(C#N)c1` [Example 588, (R)-3-(1-((3-chloro-7-fluoro-6-(2-(2-hydroxypropan-2-yl)pyrimidin-5-yl)-1,5-naphthyridin-4-yl)amino)ethyl)benzonitrile] has an IC50 of under 1000 nM. Work on `Cc1nc2cc(F)c(-c3cnc(C(C)(C)O)nc3)nc2c(N[C@H](C)c2cccc(C#N)c2)c1Cl` [Example 589, (R)-3-(1-((3-chloro-7-fluoro-6-(2-(2-hydroxypropan-2-yl)pyrimidin-5-yl)-2-methyl-1,5-naphthyridin-4-yl)amino)ethyl)benzonitrile] yielded an IC50 of under 1000 nM. With `C[C@@H](Nc1c(Cl)cnc2cc(F)c(-c3cnc(C(C)(C)O)nc3)nc12)c1cc(C#N)ccc1F` [Example 590, (R)-3-(1-((3-chloro-7-fluoro-6-(2-(2-hydroxypropan-2-yl)pyrimidin-5-yl)-1,5-naphthyridin-4-yl)amino)ethyl)-4-fluorobenzonitrile] the IC50 was under 1000 nM. `CC(Nc1ncc(-c2ccc3ncc(Cl)c(N[C@H](C)c4ccccc4F)c3c2)cn1)C(N)=O` (stereo partly drawn) [Example 591, 2-((5-(3-chloro-4-(((R)-1-(2-fluorophenyl)ethyl)amino)quinolin-6-yl)pyrimidin-2-yl)amino)propanamide] was tested, and the IC50 was under 1000 nM. For `CC(=O)NC(C)(C)c1ccc(-c2ccc3ncc(Cl)c(NC(C)c4ccccc4F)c3c2)cc1` (centres unmarked) [Example 592, N-(2-(4-(3-chloro-4-((1-(2-fluorophenyl)ethyl)amino)quinolin-6-yl)phenyl)propan-2-yl)acetamide], the IC50 was 1000 to 10000 nM.
